# Measured values taken from patent publication EP4186514A1, “PHARMACEUTICAL COMPOSITION FOR PREVENTING OR TREATING CHOLANGITIS OR LIVER DISEASE CAUSED BY CHOLANGITIS COMPRISING ADENOSINE DERIVATIVE” (Future Medicine Co., Ltd., priority 2021, dated 2023).
# pIC50: −log10 of the molar value.
# How the values were obtained:
# [1] = Plasma stability, human plasma; format: in vitro ADME
# Method: In order to test the physicochemical properties of the adenosine derivative of the inventive concept, experiments were conducted on the compound of the formula A in vitro, and the results are shown in Table 3. Plasma stability and protein binding were measured using rat and human plasma.
# [2] = target: hERG channel protein (Homo sapiens, UniProt Q12809); assay: hERG ligand binding assay (fluorescence polarization)
# Text: In order to test the hERG ligand binding assay of the compound of the formula A, a non-electrophysiological method was used to evaluate heart stability by evaluating fluorescence polarization according to the degree of hERG channel protein binding of a red fluorescent hERG channel ligand tracer.
# [3] = system: ICR mice; assay: Toxicity after intraperitoneal injection, mice; format: in vivo; settings: intraperitoneal 20, 10 and 1 mg/kg
# Method: The Adenosine Derivative of the present invention were assayed for cytotoxicity in animals.
# [4] = target: T1, A1 adenosine receptor (Homo sapiens, UniProt P30542); assay: Radioligand binding affinity, A1 adenosine receptor ([3H]CCPA, CHO cells); parameters: % hA1: dose or concentration left out as unconfirmed; settings: percentage inhibition of specific binding of [3H]CCPA
# T1 construct: expressed in transfected cells; host or cells: CHO cells (ATCC No. CCL-61)
# T1 sequence (P30542 1-326): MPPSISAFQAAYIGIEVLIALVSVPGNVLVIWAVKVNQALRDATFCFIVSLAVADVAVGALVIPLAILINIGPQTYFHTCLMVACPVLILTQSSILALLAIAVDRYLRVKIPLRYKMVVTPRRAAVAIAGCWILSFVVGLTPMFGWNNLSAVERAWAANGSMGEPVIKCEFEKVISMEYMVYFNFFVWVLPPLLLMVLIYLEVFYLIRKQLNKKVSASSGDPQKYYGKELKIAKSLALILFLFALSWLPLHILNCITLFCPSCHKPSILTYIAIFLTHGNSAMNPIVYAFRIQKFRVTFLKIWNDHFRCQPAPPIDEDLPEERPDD
# Method: CHO cells (ATCC No. CCL-61), in which A1 and A3 adenosine receptors were expressed, were cultured in F-12 media (Gibco, U.S.A.) supplemented with 10% fetal bovine serum (FBS) and penicillin/streptomycin (100 units/ml and 100 g/ml), at 37° C. in a 5% CO2 atmosphere. […] Incubation for 1 hr in a 37° C. incubator was followed by rapid filtration in a vacuum using a cell collector (TOMTEC, U.S.A.). Subsequently, the test tubes were washed three times with 3 ml of the buffer before radioactivity was measured using a γ-counter. […] Ki for binding affinity was determined by subtracting the non-specific binding value from the total binding value. On the basis of the specific binding values, the samples were analyzed for binding affinity to various adenosine receptors.
# [5] = Pharmacokinetic test in mice (Experimental Example 5); format: in vivo; settings: male, ICR, mouse, plasma, oral administration of 10 mg/kg, read-out: half-life T1/2 (converted)
# Method: In order to test the ADME properties of the adenosine derivative of the inventive concept after oral administration, pharmacokinetic properties of the compound of the formula A were measured in vivo. […] Intravenous administration was performed through a tube inserted into the femoral vein, and oral administration was performed using oral gavage. [Table 4] [table] After the administration, the experimental animals' blood was taken at predetermined time intervals for 24 hours. Then, the blood was centrifuged to separate plasma. The plasma samples were pretreated with a suitable organic solvent, and then the concentration of the plasma samples was analyzed by LC-MS/MS. The blood concentration-time data of the compound of the formula A was analyzed using WinNonlin (Pharsight, USA), and graphs of the blood concentration-time data are shown in FIGS. 5 through 9. The results of noncompartmental pharmacokinetic parameters calculated from the blood concentration-time data are shown in Tables 5 through 9. In FIGS. 5 through 9, I.V. represents an intravenous administration group, P.O. represents an oral administration group, and the definition of each parameter in Tables 5 through 9 is shown in Table 10. FIG. 7 and Table 7 show a graph and parameter values obtained from the blood concentration-time data of Experimental Example 5. […] Thus, the adenosine derivative is suitable for oral administration.
# [6] = Cytotoxicity, Cyto X cell viability assay kit; format: cell-based; settings: in each cell line
# [7] = system: each cell line; assay: Cytotoxicity, Cyto X cell viability assay kit; format: cell-based; settings: summary Table 11
# [8] = Storage stability of oral administration agent in 0.5 wt % methylcellulose (UPLC); format: physicochemical
# Method: 0.5 wt % methylcellulose, which can be used as an excipient for oral administration, was added to the compound of the formula A, sonicated and homogenized, and then divided into a group to be stored at room temperature or at 4° C., and after 1, 3, 7, and 10 days, the stability was measured by comparing the concentration with 0.5% methyl cellulose as the control group using Waters UPLC and he results are shown in Table 12.
# [9] = Pharmacokinetic test in dogs (Experimental Example 6); format: in vivo; settings: dog, plasma, maximum (Experimental Example 6), read-out: half-life T1/2
# Method: In order to test the ADME properties of the adenosine derivative of the inventive concept after oral administration, pharmacokinetic properties of the compound of the formula A were measured in vivo.
# Intravenous administration was performed through a tube inserted into the femoral vein, and oral administration was performed using oral gavage.
# After the administration, the experimental animals' blood was taken at predetermined time intervals for 24 hours. Then, the blood was centrifuged to separate plasma. The plasma samples were pretreated with a suitable organic solvent, and then the concentration of the plasma samples was analyzed by LC-MS/MS. The blood concentration-time data of the compound of the formula A was analyzed using WinNonlin (Pharsight, USA), and graphs of the blood concentration-time data are shown in FIGS. 5 through 9. The results of noncompartmental pharmacokinetic parameters calculated from the blood concentration-time data are shown in Tables 5 through 9. In FIGS. 5 through 9, I.V. represents an intravenous administration group, P.O. represents an oral administration group, and the definition of each parameter in Tables 5 through 9 is shown in Table 10.
# FIG. 8 and Table 8 show a graph and parameter values obtained from the blood concentration-time data of Experimental Example 6 (6-1, 6-2 and 6-3). […]
# hERG channel protein, sequence (Q12809 whole entry): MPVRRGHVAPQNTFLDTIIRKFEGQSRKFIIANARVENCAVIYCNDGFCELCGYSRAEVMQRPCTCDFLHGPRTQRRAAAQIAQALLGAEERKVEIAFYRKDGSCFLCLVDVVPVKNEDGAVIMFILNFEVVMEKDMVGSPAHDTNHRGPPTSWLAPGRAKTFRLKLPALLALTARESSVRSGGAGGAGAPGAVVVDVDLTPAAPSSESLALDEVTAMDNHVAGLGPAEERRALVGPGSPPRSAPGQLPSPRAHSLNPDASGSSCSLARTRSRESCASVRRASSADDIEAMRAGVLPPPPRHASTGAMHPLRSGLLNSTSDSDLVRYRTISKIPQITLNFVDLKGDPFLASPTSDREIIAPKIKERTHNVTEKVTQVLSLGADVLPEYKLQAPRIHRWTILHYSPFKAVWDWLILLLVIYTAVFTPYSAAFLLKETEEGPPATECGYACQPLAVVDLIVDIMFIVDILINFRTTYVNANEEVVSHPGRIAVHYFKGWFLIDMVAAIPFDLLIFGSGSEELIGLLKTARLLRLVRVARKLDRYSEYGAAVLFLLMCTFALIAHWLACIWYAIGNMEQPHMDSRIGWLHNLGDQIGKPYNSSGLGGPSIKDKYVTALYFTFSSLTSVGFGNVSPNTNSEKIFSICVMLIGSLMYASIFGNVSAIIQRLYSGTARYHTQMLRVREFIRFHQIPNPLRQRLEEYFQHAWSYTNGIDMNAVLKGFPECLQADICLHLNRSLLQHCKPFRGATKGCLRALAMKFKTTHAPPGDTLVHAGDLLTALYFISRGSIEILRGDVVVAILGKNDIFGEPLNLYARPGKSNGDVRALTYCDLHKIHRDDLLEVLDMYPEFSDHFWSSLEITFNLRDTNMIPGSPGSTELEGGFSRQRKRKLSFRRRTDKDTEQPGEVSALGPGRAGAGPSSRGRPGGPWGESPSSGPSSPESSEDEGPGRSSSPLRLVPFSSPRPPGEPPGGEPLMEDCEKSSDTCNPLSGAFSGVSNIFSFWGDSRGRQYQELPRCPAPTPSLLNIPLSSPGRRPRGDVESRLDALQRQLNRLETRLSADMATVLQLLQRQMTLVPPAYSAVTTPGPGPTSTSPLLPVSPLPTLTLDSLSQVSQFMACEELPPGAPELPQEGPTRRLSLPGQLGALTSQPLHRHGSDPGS
compound,measurement,setting,value
"O[C@@H]1[C@H](O)CS[C@H]1n1cnc2c(NCc3cccc(Cl)c3)nc(Cl)nc21 [Example 2, (2R,3R,4S)-2-(2-chloro-6-(3-chlorobenzylamino)-9H-purin-9-yl)tetrahydrothiophen-3,4-diol]",Plasma stability,[1],98.9
same,inhibition rate (hERG ligand binding),[2]; 10 µM of the compound,≤ 50%
same,"Toxicity, hERG ligand binding assay evaluation",[2]; summary Table 11,Not detected
same,weight gain or feed intake versus control group,[3],No difference
same,death,[3]; observation for 24 hrs,No death was observed
same,% hA1,[4],37.9%
same,half-life,[5],~3.61 h
same,pIC50,[6],≤ 5.00
same,"Toxicity, Cytotoxicity evaluation",[7],Not detected
same,Stability (%),"[8]; Stored at 4°C, After 1 day, 200 µg/ml",118±21.4%
same,Stability (%),"[8]; Stored at 4°C, After 1 day, 1000 µg/ml",76.5±11.7%
same,Stability (%),"[8]; Stored at 4°C, After 1 day, 3000 µg/ml",84.8±17.9%
same,Stability (%),"[8]; Stored at 4°C, After 3 days, 200 µg/ml",125±40.2%
same,Stability (%),"[8]; Stored at 4°C, After 3 days, 1000 µg/ml",87.6±9.26%
same,Stability (%),"[8]; Stored at 4°C, After 3 days, 3000 µg/ml",94.8±2.55%
same,Stability (%),"[8]; Stored at 4°C, After 7 days, 200 µg/ml",88.3±17.3%
same,Stability (%),"[8]; Stored at 4°C, After 7 days, 1000 µg/ml",80.1±27.7%
same,Stability (%),"[8]; Stored at 4°C, After 7 days, 3000 µg/ml",89.7±8.30%
same,Stability (%),"[8]; Stored at 4°C, After 10 days, 200 µg/ml",93.8±44.8%
same,Stability (%),"[8]; Stored at 4°C, After 10 days, 1000 µg/ml",79.5±22.0%
same,Stability (%),"[8]; Stored at 4°C, After 10 days, 3000 µg/ml",99.0±3.87%
same,Stability (%),"[8]; Stored at RT, After 1 day, 200 µg/ml",84.3±4.10%
same,Stability (%),"[8]; Stored at RT, After 1 day, 1000 µg/ml",82.7±16.3%
same,Stability (%),"[8]; Stored at RT, After 1 day, 3000 µg/ml",90.5±6.44%
same,Stability (%),"[8]; Stored at RT, After 3 days, 200 µg/ml",76.3±8.12%
same,Stability (%),"[8]; Stored at RT, After 3 days, 1000 µg/ml",82.7±37.0%
same,Stability (%),"[8]; Stored at RT, After 3 days, 3000 µg/ml",80.5±5.01%
same,Stability (%),"[8]; Stored at RT, After 7 days, 200 µg/ml",80.9±14.6%
same,Stability (%),"[8]; Stored at RT, After 7 days, 1000 µg/ml",75.4±6.66%
same,Stability (%),"[8]; Stored at RT, After 7 days, 3000 µg/ml",101±13.2%
same,Stability (%),"[8]; Stored at RT, After 10 days, 200 µg/ml",90.3±23.2%
same,Stability (%),"[8]; Stored at RT, After 10 days, 1000 µg/ml",94.2±9.17%
same,Stability (%),"[8]; Stored at RT, After 10 days, 3000 µg/ml",92.2±2.17%
same,half-life,[9],≥ 5.53 h
